The results in this text go back to US20050019260A1, “Animal model for allergy” (priority 2001, published 2005).

This assay relates to sheep mammary gland. The assay is described as follows: Single intramammary infusion of lipopolysaccharide, MAL cell collection. It is filed as in vivo.

With lipopolysaccharide, the MAL cell influx entry was “predominantly neutrophils” (24 h after single intramammary infusion) and “macrophage infiltration” (day 5 after single intramammary infusion).
